Measured values taken from ChEMBL document CHEMBL3991601, “The target landscape of clinical kinase drugs” (Science, 2017).
The source made the active and inactive calls. Rule as the data show it, for most assays here: actives have a measured Kd and inactives only a lower limit.

Tests used:
[1] = target: T1, Dual specificity mitogen-activated protein kinase kinase 6 (Homo sapiens, UniProt P52564)
T1 sequence (P52564 whole entry): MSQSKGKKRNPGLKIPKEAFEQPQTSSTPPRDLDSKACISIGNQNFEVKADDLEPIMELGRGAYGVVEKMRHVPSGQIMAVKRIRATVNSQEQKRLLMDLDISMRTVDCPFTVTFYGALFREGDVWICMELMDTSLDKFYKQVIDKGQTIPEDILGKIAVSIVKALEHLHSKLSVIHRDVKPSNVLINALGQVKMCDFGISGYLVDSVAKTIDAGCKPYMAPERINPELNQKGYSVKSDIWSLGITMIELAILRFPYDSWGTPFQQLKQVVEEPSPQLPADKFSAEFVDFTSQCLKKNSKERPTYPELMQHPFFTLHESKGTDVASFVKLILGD

[2] = target: NADH dehydrogenase [ubiquinone] 1 alpha subcomplex subunit 13 (Homo sapiens, UniProt Q9P0J0)
[3] = target: AP2-associated protein kinase 1 (Homo sapiens, UniProt Q2M2I8)
[4] = target: Cyclin-dependent kinase 3 (Homo sapiens, UniProt Q00526)
Deoxycytidine kinase = Deoxycytidine kinase (Homo sapiens, UniProt P27707)
Myosin-14 = Myosin-14 (Homo sapiens, UniProt Q7Z406)
[5] = target: BMP-2-inducible protein kinase (Homo sapiens, UniProt Q9NSY1)
[6] = target: T2, Serine/threonine-protein kinase TAO2 (Homo sapiens, UniProt Q9UL54)
T2 sequence (Q9UL54 whole entry): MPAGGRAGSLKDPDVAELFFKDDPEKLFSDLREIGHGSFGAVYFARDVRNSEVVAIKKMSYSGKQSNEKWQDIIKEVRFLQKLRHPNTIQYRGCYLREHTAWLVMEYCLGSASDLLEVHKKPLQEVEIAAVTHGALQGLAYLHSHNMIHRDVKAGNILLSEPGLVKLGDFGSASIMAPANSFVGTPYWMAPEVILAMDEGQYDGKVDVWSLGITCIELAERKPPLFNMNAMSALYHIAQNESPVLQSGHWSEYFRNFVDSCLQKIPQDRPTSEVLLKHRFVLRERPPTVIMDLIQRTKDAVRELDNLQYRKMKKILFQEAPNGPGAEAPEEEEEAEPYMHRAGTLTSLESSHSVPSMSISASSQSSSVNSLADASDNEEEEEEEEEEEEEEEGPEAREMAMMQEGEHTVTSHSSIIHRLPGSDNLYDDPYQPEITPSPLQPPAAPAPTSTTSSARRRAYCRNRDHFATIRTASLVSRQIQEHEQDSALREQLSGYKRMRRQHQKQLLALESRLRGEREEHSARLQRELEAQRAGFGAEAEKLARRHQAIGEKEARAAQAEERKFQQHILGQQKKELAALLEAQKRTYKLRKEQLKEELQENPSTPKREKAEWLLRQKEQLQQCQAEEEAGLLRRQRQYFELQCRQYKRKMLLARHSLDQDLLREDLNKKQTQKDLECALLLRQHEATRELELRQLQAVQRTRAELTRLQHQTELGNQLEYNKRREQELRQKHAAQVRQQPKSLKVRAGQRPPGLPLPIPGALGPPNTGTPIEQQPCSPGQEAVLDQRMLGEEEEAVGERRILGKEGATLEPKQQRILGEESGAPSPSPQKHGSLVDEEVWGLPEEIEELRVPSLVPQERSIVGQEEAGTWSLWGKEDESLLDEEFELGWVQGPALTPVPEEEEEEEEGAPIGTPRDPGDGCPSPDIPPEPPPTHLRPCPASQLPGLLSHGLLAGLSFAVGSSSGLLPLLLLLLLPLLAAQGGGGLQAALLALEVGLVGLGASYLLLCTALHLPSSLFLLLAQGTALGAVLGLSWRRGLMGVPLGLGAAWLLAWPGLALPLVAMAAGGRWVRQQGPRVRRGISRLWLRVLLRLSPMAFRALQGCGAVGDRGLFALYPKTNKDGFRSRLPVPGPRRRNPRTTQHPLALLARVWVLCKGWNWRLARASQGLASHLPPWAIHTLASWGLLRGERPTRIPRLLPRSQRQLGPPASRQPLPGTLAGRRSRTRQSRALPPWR

[7] = target: Cyclin-dependent kinase 1 (Homo sapiens, UniProt P06493)
[8] = target: DnaJ homolog subfamily A member 1 (Homo sapiens, UniProt P31689)
Ephrin type-A receptor 2 = Ephrin type-A receptor 2 (Homo sapiens, UniProt P29317)
[9] = target: Cyclin-dependent kinase 12 (Homo sapiens, UniProt Q9NYV4)
[10] = target: Citron Rho-interacting kinase (Homo sapiens, UniProt O14578)
[11] = target: Serine/threonine-protein kinase PAK 2 (Homo sapiens, UniProt Q13177)
DNA topoisomerase 2-beta = DNA topoisomerase 2-beta (Homo sapiens, UniProt Q02880)
Also: in the data inactive means no Kd found up to 30 µM.

Myosin-14, sequence (Q7Z406 whole entry): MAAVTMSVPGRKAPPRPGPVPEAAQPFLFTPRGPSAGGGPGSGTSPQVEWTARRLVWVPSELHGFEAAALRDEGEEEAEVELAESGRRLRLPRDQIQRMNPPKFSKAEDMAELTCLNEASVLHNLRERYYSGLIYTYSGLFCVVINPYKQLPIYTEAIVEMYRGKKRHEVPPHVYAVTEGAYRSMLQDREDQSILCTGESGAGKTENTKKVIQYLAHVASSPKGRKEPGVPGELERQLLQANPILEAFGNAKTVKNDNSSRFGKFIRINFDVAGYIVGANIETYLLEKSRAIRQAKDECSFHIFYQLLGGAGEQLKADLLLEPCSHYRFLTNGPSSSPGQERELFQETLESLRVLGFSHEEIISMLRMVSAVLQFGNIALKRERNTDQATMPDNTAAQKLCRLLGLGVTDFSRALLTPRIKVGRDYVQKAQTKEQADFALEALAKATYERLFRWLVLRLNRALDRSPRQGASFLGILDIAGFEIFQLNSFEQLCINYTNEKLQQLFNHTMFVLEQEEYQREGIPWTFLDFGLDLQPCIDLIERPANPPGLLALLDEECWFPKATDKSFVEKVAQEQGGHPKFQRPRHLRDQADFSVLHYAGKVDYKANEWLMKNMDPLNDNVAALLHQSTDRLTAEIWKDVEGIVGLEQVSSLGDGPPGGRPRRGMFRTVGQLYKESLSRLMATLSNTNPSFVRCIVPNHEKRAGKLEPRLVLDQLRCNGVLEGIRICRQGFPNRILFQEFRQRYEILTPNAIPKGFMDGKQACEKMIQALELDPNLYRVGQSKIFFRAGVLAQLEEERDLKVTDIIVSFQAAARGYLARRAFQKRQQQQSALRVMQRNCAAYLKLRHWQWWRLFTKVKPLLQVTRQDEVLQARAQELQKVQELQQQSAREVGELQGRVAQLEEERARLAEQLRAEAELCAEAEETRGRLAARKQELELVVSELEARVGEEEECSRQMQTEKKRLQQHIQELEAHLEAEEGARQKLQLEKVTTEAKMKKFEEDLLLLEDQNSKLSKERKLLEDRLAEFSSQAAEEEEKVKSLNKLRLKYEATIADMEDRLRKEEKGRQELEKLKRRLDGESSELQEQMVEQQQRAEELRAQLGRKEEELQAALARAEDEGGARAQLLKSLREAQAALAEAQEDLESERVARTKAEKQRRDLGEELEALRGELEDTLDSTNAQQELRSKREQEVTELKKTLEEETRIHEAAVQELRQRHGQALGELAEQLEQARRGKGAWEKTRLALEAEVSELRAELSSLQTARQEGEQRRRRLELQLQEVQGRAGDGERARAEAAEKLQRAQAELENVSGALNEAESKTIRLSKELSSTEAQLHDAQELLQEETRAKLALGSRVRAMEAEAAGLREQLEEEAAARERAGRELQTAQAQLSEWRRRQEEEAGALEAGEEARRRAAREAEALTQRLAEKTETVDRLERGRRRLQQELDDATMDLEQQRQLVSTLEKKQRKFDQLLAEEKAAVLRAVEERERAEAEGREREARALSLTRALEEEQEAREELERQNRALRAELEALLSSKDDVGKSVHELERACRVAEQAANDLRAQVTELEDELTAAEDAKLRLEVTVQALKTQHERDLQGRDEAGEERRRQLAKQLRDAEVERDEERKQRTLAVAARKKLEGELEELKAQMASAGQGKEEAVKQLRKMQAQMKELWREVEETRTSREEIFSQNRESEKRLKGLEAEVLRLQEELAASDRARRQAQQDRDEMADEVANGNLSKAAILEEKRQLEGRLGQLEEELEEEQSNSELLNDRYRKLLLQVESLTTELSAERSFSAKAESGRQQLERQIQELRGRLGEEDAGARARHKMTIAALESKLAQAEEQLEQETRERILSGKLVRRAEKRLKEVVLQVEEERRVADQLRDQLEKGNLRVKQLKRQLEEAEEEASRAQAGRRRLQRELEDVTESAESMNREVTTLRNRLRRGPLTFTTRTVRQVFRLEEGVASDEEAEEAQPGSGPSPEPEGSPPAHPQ
AP2-associated protein kinase 1, sequence (Q2M2I8 whole entry): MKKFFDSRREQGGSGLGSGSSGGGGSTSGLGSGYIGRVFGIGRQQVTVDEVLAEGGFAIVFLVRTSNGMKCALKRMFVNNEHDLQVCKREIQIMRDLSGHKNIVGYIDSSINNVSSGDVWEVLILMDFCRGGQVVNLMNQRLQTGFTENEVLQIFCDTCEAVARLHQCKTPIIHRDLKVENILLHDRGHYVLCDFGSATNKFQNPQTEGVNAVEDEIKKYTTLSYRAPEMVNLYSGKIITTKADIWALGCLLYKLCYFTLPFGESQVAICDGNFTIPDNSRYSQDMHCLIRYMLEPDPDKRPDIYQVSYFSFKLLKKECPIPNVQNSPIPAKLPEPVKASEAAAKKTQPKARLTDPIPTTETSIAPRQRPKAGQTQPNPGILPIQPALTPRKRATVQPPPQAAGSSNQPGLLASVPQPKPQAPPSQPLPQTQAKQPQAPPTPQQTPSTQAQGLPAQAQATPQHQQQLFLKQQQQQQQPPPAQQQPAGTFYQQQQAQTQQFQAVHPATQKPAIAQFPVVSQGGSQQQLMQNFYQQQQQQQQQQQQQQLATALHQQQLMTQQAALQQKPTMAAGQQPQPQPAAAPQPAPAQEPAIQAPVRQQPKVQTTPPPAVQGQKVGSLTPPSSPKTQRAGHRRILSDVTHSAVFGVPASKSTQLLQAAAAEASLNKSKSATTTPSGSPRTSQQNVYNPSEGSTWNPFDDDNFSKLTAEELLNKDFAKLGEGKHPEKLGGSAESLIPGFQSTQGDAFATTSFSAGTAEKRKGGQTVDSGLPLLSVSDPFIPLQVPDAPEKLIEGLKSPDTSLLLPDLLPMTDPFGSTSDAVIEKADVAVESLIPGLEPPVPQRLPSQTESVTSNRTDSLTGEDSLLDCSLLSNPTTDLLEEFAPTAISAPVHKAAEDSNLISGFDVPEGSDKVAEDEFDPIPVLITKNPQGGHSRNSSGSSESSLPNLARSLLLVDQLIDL
Cyclin-dependent kinase 3, sequence (Q00526 whole entry): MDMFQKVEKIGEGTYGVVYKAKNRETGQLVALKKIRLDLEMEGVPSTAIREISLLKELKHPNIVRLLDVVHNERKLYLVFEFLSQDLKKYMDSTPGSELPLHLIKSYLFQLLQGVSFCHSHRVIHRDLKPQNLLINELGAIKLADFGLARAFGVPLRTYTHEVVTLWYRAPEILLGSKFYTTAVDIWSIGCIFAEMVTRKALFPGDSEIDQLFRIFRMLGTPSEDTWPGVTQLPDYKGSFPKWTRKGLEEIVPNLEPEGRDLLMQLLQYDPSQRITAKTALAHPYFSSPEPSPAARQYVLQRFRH
Deoxycytidine kinase, sequence (P27707 whole entry): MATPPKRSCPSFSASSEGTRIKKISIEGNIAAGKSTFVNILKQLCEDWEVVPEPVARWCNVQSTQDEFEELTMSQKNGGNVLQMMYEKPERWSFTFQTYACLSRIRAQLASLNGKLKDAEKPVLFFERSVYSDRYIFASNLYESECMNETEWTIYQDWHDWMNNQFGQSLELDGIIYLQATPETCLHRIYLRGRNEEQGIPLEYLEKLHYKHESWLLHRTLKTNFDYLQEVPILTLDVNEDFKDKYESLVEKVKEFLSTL
Cyclin-dependent kinase 12, sequence (Q9NYV4 whole entry): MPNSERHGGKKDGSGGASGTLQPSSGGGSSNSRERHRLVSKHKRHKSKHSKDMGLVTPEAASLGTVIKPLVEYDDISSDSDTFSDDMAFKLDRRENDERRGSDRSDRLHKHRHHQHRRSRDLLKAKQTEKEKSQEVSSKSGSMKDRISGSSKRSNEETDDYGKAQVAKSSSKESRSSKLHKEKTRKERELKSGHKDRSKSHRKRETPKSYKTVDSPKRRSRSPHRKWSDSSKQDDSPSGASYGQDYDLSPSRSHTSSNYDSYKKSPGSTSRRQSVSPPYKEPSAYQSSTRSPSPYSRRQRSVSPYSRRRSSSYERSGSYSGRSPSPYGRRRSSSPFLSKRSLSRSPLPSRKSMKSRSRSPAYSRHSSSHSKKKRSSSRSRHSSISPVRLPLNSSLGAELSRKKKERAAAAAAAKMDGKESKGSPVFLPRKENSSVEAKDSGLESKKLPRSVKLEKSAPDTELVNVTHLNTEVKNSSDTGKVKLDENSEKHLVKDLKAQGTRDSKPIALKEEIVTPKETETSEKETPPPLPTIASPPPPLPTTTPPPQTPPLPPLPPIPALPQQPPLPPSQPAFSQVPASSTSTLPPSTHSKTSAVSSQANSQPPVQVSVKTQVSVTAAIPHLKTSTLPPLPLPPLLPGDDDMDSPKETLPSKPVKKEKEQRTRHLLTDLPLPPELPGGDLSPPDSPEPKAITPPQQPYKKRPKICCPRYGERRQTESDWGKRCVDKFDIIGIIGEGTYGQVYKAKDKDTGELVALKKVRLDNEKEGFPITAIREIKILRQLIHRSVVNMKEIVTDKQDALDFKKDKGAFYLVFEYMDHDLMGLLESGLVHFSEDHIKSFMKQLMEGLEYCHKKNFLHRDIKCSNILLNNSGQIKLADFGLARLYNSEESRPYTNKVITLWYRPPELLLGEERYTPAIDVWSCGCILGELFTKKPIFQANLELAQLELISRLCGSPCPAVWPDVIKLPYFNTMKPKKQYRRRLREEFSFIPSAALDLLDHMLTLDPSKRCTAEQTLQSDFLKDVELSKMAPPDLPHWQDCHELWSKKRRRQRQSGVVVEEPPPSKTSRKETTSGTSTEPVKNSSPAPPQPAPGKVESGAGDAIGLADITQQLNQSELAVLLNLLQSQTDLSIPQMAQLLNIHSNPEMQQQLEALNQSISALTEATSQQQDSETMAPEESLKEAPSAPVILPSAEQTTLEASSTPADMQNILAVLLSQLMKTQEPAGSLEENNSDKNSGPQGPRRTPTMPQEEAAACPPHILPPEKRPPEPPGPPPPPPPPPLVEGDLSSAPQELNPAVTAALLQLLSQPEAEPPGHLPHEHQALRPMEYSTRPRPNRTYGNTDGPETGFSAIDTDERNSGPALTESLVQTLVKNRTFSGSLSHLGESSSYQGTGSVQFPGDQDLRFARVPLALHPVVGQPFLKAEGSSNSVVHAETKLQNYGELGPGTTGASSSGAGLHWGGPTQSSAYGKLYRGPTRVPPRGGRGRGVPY

Compound	Kd [1]	Kd [2]	Kd [3]	Kd [4]	Kd (Deoxycytidine kinase)	Kd (Myosin-14)	Kd [5]	Kd [6]	Kd [7]	Kd [8]	Kd (Ephrin type-A receptor 2)	Kd [9]	Kd [10]	Kd [11]	Kd (DNA topoisomerase 2-beta)
CNC(=O)CN1CCC(Oc2cc3c(Nc4cccc(Cl)c4F)ncnc3cc2OC)CC1 [SAPITINIB]	> 30 µM (inactive)	> 30 µM (inactive)	> 30 µM (inactive)	> 30 µM (inactive)	> 30 µM (inactive)	> 30 µM (inactive)	> 30 µM (inactive)	> 30 µM (inactive)	> 30 µM (inactive)	> 30 µM (inactive)	8.2 µM	> 30 µM (inactive)	> 30 µM (inactive)	> 30 µM (inactive)	> 30 µM (inactive)
CCCS(=O)(=O)Nc1ccc(F)c(C(=O)c2c[nH]c3ncc(-c4ccc(Cl)cc4)cc23)c1F [VEMURAFENIB]	> 30 µM (inactive)	> 30 µM (inactive)	> 30 µM (inactive)	> 30 µM (inactive)	> 30 µM (inactive)	> 30 µM (inactive)	> 30 µM (inactive)	> 30 µM (inactive)	> 30 µM (inactive)	> 30 µM (inactive)	> 30 µM (inactive)	> 30 µM (inactive)	> 30 µM (inactive)	> 30 µM (inactive)	> 30 µM (inactive)
COC(=O)[C@@]1(O)C[C@H]2O[C@]1(C)n1c3ccccc3c3c4c(c5c6ccccc6n2c5c31)C(=O)NC4 [K-252A]	–	> 30 µM (inactive)	0.005 µM (active)	0.032 µM (active)	> 30 µM (inactive)	> 30 µM (inactive)	0.09 µM (active)	> 30 µM (inactive)	> 30 µM (inactive)	> 30 µM (inactive)	> 30 µM (inactive)	> 30 µM (inactive)	> 30 µM (inactive)	> 30 µM (inactive)	> 30 µM (inactive)
C[C@@H](c1ccc2nccn2c1)n1nnc2ncc(-c3cnn(C)c3)nc21 [SAVOLITINIB]	> 30 µM (inactive)	–	> 30 µM (inactive)	> 30 µM (inactive)	> 30 µM (inactive)	> 30 µM (inactive)	> 30 µM (inactive)	> 30 µM (inactive)	> 30 µM (inactive)	> 30 µM (inactive)	> 30 µM (inactive)	> 30 µM (inactive)	> 30 µM (inactive)	> 30 µM (inactive)	–
CCS(=O)(=O)N1CC(CC#N)(n2cc(-c3ncnc4[nH]ccc34)cn2)C1 [BARICITINIB]	> 30 µM (inactive)	> 30 µM (inactive)	0.046 µM (active)	> 30 µM (inactive)	> 30 µM (inactive)	> 30 µM (inactive)	–	> 30 µM (inactive)	> 30 µM (inactive)	> 30 µM (inactive)	> 30 µM (inactive)	> 30 µM (inactive)	4.36 µM (active)	> 30 µM (inactive)	> 30 µM (inactive)
O=C(O)[C@]1(Cc2cccc(Nc3nccs3)n2)CC[C@@H](Oc2cccc(Cl)c2F)CC1 [MK-5108]	> 30 µM (inactive)	> 30 µM (inactive)	> 30 µM (inactive)	> 30 µM (inactive)	> 30 µM (inactive)	> 30 µM (inactive)	> 30 µM (inactive)	> 30 µM (inactive)	> 30 µM (inactive)	> 30 µM (inactive)	–	> 30 µM (inactive)	> 30 µM (inactive)	> 30 µM (inactive)	> 30 µM (inactive)
